In BindingDB's records for doi:10.1016/s0960-894x(00)00385-1 (Merck Research Laboratories, 2001) one finds IC50 data, which are given here for 23 molecules.

Molecules are shown by their SMILES.

This assay in a line: Inhibition of aggregation of human gel-filtered platelets measured by light transmittance method at 37 degrees C.
Turning to `O=C(NC[C@H](NS(=O)(=O)c1ccccc1)C(=O)O)c1cc2cc(OCCC3CCNCC3)ccc2[nH]1` [(S)-2-Benzenesulfonylamino-3-{[5-(2-piperidin-4-yl-ethoxy)-1H-indole-2-carbonyl]-amino}-propionic acid], inhibition was half-maximal at 10 nM (IC50).

As for `O=C(NC[C@H](NS(=O)(=O)c1ccccc1)C(=O)O)c1ccc2c(c1)C(=O)N(CCC1CCNCC1)C2` [(S)-2-Benzenesulfonylamino-3-{[3-oxo-2-(2-piperidin-4-yl-ethyl)-2,3-dihydro-1H-isoindole-5-carbonyl]-amino}-propionic acid], half-maximal inhibition (IC50) was put at 8 nM. This IC50 and that of the molecule before are within 1.5-fold of each other. Regarding `O=C(CN1CCc2ccc(N3CCNCC3)cc2C1=O)NC[C@H](NS(=O)(=O)c1ccccc1)C(=O)O` [(S)-2-Benzenesulfonylamino-3-[2-(1-oxo-7-piperazin-1-yl-3,4-dihydro-1H-isoquinolin-2-yl)-acetylamino]-propionic acid], the IC50 (in general, the concentration that inhibits the measured activity by half) worked out at 35 nM. Under `C#C[C@H](CC(=O)O)NC(=O)C[C@H]1CCCN(CCc2ccnc(N)c2)C1=O` [(S)-3-(2-{(R)-1-[2-(2-Amino-pyridin-4-yl)-ethyl]-2-oxo-piperidin-3-yl}-acetylamino)-pent-4-ynoic acid] stands 19 nM. Under `O=C(CN1CCC[C@@H](CCC2CCNCC2)C1=O)NC[C@H](NS(=O)(=O)c1ccccc1)C(=O)O` [(S)-2-Benzenesulfonylamino-3-{2-[(R)-2-oxo-3-(2-piperidin-4-yl-ethyl)-piperidin-1-yl]-acetylamino}-propionic acid] stands 11 nM; under `O=C(O)C[C@H](NC(=O)CN1CCC[C@@H](CCC2CCNCC2)C1=O)c1cccnc1` [(S)-3-{2-[(R)-2-Oxo-3-(2-piperidin-4-yl-ethyl)-piperidin-1-yl]-acetylamino}-3-pyridin-3-yl-propionic acid], 10 nM; under `C[C@H](CC(=O)O)NC(=O)CN1CCC[C@@H](CCC2CCNCC2)C1=O` [3-{2-[2-Oxo-3-(2-piperidin-4-yl-ethyl)-piperidin-1-yl]-acetylamino}-butyric acid (L-734217)], 32 nM.

Turning to `O=C(O)C[C@@H](CO)NC(=O)c1ccc2c(c1)C(=O)N(CCC1CCNCC1)C2` [(S)-4-Hydroxy-3-{[3-oxo-2-(2-piperidin-4-yl-ethyl)-2,3-dihydro-1H-isoindole-5-carbonyl]-amino}-butyric acid], the IC50 amounted to 8 nM. The molecule `C#CC(CCCN1CCC[C@@H](CCC2CCNCC2)C1=O)CC(=O)O` (stereo partly drawn) [3-Ethynyl-6-[(R)-2-oxo-3-(2-piperidin-4-yl-ethyl)-piperidin-1-yl]-hexanoic acid] yielded an IC50 of 51 nM. The result for `O=C(O)CCNC(=O)CN1CCc2ccc(N3CCNCC3)cc2C1=O` [3-[2-(1-Oxo-7-piperazin-1-yl-3,4-dihydro-1H-isoquinolin-2-yl)-acetylamino]-propionic acid] reads 140 nM; that for `C#C[C@H](CC(=O)O)NC(=O)CN1CCC[C@@H](CCc2ccnc(N)c2)C1=O` [(S)-3-(2-{(R)-3-[2-(2-Amino-pyridin-4-yl)-ethyl]-2-oxo-piperidin-1-yl}-acetylamino)-pent-4-ynoic acid], 28 nM; that for `C#C[C@H](CC(=O)O)NC(=O)C[C@H]1CCCN(CCC2CCNCC2)C1=O` [(S)-3-{2-[(R)-2-Oxo-1-(2-piperidin-4-yl-ethyl)-piperidin-3-yl]-acetylamino}-pent-4-ynoic acid], 15 nM. `C#C[C@H](CC(=O)O)NC(=O)CN1CCc2ccc(N3CCNCC3)cc2C1=O` [L-767679] yielded an IC50 of 15 nM. This counts as double-digit nanomolar.

Molecule `O=C(O)C[C@@H](CO)NC(=O)CN1CCc2ccc(N3CCNCC3)cc2C1=O` [(S)-4-Hydroxy-3-[2-(1-oxo-7-piperazin-1-yl-3,4-dihydro-1H-isoquinolin-2-yl)-acetylamino]-butyric acid] came in with an IC50 of 81 nM. Under `C#C[C@H](CC(=O)O)NC(=O)c1ccc2c(c1)C(=O)N(CCc1ccnc(N)c1)C2` [(S)-3-({2-[2-(2-Amino-pyridin-4-yl)-ethyl]-3-oxo-2,3-dihydro-1H-isoindole-5-carbonyl}-amino)-pent-4-ynoic acid] stands 27 nM; under `O=C(NC[C@H](NS(=O)(=O)c1ccccc1)C(=O)O)c1ccc(OCCC2CCNCC2)cc1` [2-Benzenesulfonylamino-3-[4-(2-piperidin-4-yl-ethoxy)-benzoylamino]-propionic acid], 13 nM; under `O=C(O)C[C@H](NC(=O)C[C@H]1CCCN(CCC2CCNCC2)C1=O)c1cccnc1` [(S)-3-{2-[(R)-2-Oxo-1-(2-piperidin-4-yl-ethyl)-piperidin-3-yl]-acetylamino}-3-pyridin-3-yl-propionic acid], 9 nM.

For the molecule `C#C[C@H](CC(=O)O)NC(=O)CN1CCC[C@@H](CCC2CCNCC2)C1=O` [(S)-3-{2-[(R)-2-Oxo-3-(2-piperidin-4-yl-ethyl)-piperidin-1-yl]-acetylamino}-pent-4-ynoic acid], the IC50 is 13 nM.

For `C#CC(CC(=O)O)NC(=O)CN(C(=O)c1cccc(C2CCNCC2)c1)C1CC1` (stereo not drawn) [3-{2-[Cyclopropyl-(3-piperidin-4-yl-benzoyl)-amino]-acetylamino}-pent-4-ynoic acid], the IC50 was 15 nM.

`CC(CC(=O)O)NC(=O)c1ccc2c(c1)C(=O)N(CCC1CCNCC1)C2` (stereo not drawn) [3-{[3-Oxo-2-(2-piperidin-4-yl-ethyl)-2,3-dihydro-1H-isoindole-5-carbonyl]-amino}-butyric acid] registered an IC50 of 65 nM.

On to `Cc1ccc(S(=O)(=O)N[C@@H](CNC(=O)c2cc3n(n2)CCCN(CCC2CCNCC2)C3=O)C(=O)O)cc1` [(S)-3-{[4-Oxo-5-(2-piperidin-4-yl-ethyl)-5,6,7,8-tetrahydro-4H-1,5,8a-triaza-azulene-2-carbonyl]-amino}-2-(toluene-4-sulfonylamino)-propionic acid], for which the IC50 was 8 nM. Under `O=C(O)C[C@H](NC(=O)CN1CCc2ccc(N3CCNCC3)cc2C1=O)c1cccnc1` [(S)-3-[2-(1-Oxo-7-piperazin-1-yl-3,4-dihydro-1H-isoquinolin-2-yl)-acetylamino]-3-pyridin-3-yl-propionic acid] stands 13 nM; under `C[C@@H](/C=C/CN1CCC[C@@H](CCC2CCNCC2)C1=O)CC(=O)O` [(E)-(R)-3-Methyl-6-[(R)-2-oxo-3-(2-piperidin-4-yl-ethyl)-piperidin-1-yl]-hex-4-enoic acid], 57 nM.
